Reference: a melting point compilation (Tetko et al.; mined from patent text by program, amines drawn as free bases though some values may be those of a salt)

melting point [°C]	Compound
39 to 40	Cc1cc(=O)n(CCBr)o1
125 to 127	CN1C(=O)C2C3C=CC(CC3)C2(c2ccc(F)c(F)c2)C1=O (stereo not given)
125 to 127	COC(=O)CCCc1cc2cc(Cl)ccc2n1S(=O)(=O)c1c(C)nn(C)c1C
75 to 77	COc1c(C=O)cc(Cl)c(Cl)c1OC
126 to 127	CC(C)(C)OC(=O)CC1CCNC(=O)c2ccccc21 (stereo not given)
> 280	CCn1c(=O)c2[nH]c(C(F)=Cc3ccccc3)nc2n(CC)c1=O
93 to 95	ON=Cc1cc(OCC(F)(F)F)ccc1OCc1ccccc1
116 to 117	O=C(O)c1ccc(C(F)(F)F)c(N2CCOCC2)n1
94 to 96	CC(=NOCCO)c1ccc2ccccc2c1
168 to 170	C[C@H](Cn1ncnn1)n1cnc2cc3c(=O)n([C@H](C)Cn4cnnn4)nnc3cc2c1=O
214 to 216	O=C(CCl)Nc1cc(C(=O)O)cc(OCc2ccccc2)c1C(=O)c1ccccc1
85 to 86	CN(CCc1ccccc1)C1CCN(C(=O)c2ccc(-n3cncn3)nc2)CC1
139 to 140	CCOC(=O)c1cc([N+](=O)[O-])ccc1OCc1ccc2ccccc2n1
216 to 219	CS(=O)(=O)NCCCCn1c(CO)nc2c(N)nc3ccccc3c21
60.5 to 66	CNC1=NS(=O)(=O)N=C1NCCSCc1ccc(CN(C)C)s1
110 to 111	CCCCOC(=O)c1ccc(Cl)nn1
190	COc1c(C#N)c(C#N)c(OC)c2ccccc12
100 to 102	O=C(N[C@H]1CCCNC1=O)OCc1ccccc1
155 to 157	CCCNC(=S)NCCC1Cc2ccc(-c3ccc(=O)[nH]n3)cc2C1 (stereo not given)
125 to 126	CCOC(=O)c1c(C)nc(-c2ccccc2)nc1-c1cc([N+](=O)[O-])ccc1SC
173 to 175	CCCCc1nc(Cl)c(CO)n1Cc1ccc(-c2nc3ccccn3c2C(=O)O)cc1
> 270	O=C(Nc1cccc([N+](=O)[O-])c1)c1ccccc1SSc1ccccc1C(=O)Nc1cccc([N+](=O)[O-])c1
106 to 108	CC(C)CNS(=O)(=O)c1ccccc1CCOS(C)(=O)=O
159 to 161	CCCCOCCOc1ccc(-c2ccc3c(c2)C=C(C(=O)Nc2ccc(S(=O)Cc4nccn4CCCC(=O)NC)cc2)CCN3CC(C)C)cc1 (stereo not given)

melting point [°C]	Compound
101 to 103	C#CC1CCN(C(=O)c2ccccc2)CC1
194 to 195	CC(C)(Cc1ccccc1)C(NC(=O)c1ccc(Cl)cc1)Nc1c(Nc2cncc(C(F)(F)F)c2)c(=O)c1=O (stereo not given)
48 to 50	CCOC(=O)c1cccn2ccnc12
145 to 146	O=C(NO)c1ccc(CNC(=O)c2[nH]c(-c3ccccc3)cc2-c2cccc(Br)c2)cc1
164 to 165	C=CCc1c(O)ccc2c(=O)cc(C(=O)OCC)oc12
111	CCCC(=O)NCC1Cc2cccc3cccc1c23 (stereo not given)
46 to 47	O=[N+]([O-])c1cc(Cl)c2c(c1)C(F)(C(F)(F)F)C(F)(F)O2 (stereo not given)
86 to 88	COC(=O)CC(C#N)Cc1ccc(Cl)cc1Cl (stereo not given)
101 to 105	CCOC(=O)ON=C(N)c1cccc(Oc2ccc3c(c2)S(=O)(=O)N=C2CCCN23)c1
171 to 174	CCN1CC(=O)N(c2cc(Cl)ccc2OC)C1=S
193 to 194	COc1ccc(C2=NN(C3CCN(C(=O)CN4C(=O)c5ccccc5C4=O)CC3)C(=O)C(C)(C)C2)cc1OC
175 to 178	O=C1NCCCCC1c1cccc(O)c1 (stereo not given)
138 to 141	CCN(CC)c1ccc(CN2CCC(NC(=O)Nc3ccccc3CCc3cc(C(C)(C)C)c(O)c(C(C)(C)C)c3)CC2)cc1
142 to 143	CC(=O)Nc1ccc(C(=O)Oc2ccccc2)c(OC(C)=O)c1
238 to 240	COc1nc2cc([N+](=O)[O-])c(C)c(C(=O)Nc3ccccc3)c2nc1OC
168 to 170	COCCn1nc(-c2sc(C(=O)NCc3ccccn3)nc2-c2ccccc2)ccc1=O
84	NC(=O)CCCCCCBr
136	CCCCOC(=O)n1ccc(NC(=O)Nc2cccc3c2C2CCCCN2C3=O)n1 (stereo not given)
156 to 158	COC(=O)C1CCC2C3CCC4CC(=O)CCC4(C)C3C(NC3CCCC3)CC12C (stereo not given)
190 to 191	COc1ccc(C(=O)NC2CCCNC(=O)C2)cc1OC (stereo not given)
95 to 97	CC1(C(=O)Cn2cncn2)COCOC1
224 to 226	COC(=O)/C=C/n1cnc2c(OC)cc(OC)cc2c1=O
242 to 244	CSc1nc(-c2ccc(S(C)(=O)=O)cc2)n(-c2ccc(C)cc2)c(=O)c1C#N
260 to 261	CCn1c(C(C#N)c2cc(C)cc(C#N)c2)c(C(C)C)c(=O)[nH]c1=O (stereo not given)

melting point [°C]	Compound
222 to 226	Cc1cc(-c2ccc(S(C)=O)cc2)n(-c2ccc(S(N)(=O)=O)cc2)c1 (stereo not given)
131 to 132	COCC(C)Oc1cc(Oc2ccc(S(C)(=O)=O)nc2)cc2cc(C3=NCC(CC(N)=O)S3)[nH]c12 (stereo not given)
276 to 277	Cc1nc2c(O)c(CC[C@@H](O)c3ccc(F)cc3)c(C(=O)N(C)C)cc2n1C
140 to 143	CC(=O)NC(=CC(C)C)c1ccccc1N1CCCCC1
215	Cc1nn2c(C(F)(F)F)cc(-c3cccc(C(F)(F)F)c3)nc2c1C#N
117 to 120	CCCCC(=O)C(=Cc1ccc(Cl)cc1)n1cncn1
83.5 to 86	CCN(CC)CCNc1cc(Sc2ccc(Cl)cc2)nc(-c2ccccc2)n1
141 to 142	Fc1ccc(-c2cc(-c3ccccc3)c3cc(Cl)ccc3n2)cc1
171 to 174	CC(C)(C)c1ccc(-c2cccc(-c3ccccc3)c2CC(=O)NC(=N)N)cc1
135 to 136	COc1ccc(-c2cc(CN3CCN(C)CC3)c(=O)n(Cc3ccc(F)c(F)c3)n2)cc1F
245 to 248	O=C(O)c1ccc(-c2csc(-c3ccccc3)n2)cc1
250	O=C(O)c1ccc(-c2cnc3c(c2)N(Cc2ccccc2OC(F)(F)F)CCN3)cc1
51 to 52	CCOC(=O)CC1CCc2ccc(COc3ccc(C#N)cc3)cc2C1 (stereo not given)
172 to 173	Nc1cccc(C#Cc2c(F)c(F)nc(F)c2F)c1
131 to 132	CC(=O)Nc1ccc(F)cc1C
43 to 44	CCCCCCCCCCCCCCCC(=O)OCC(COC(=O)CCCCCCCCCCCCCCC)OC(=O)C1C=CC=CC1(O)C(C)=O (stereo not given)
108	CC(COc1ccc2ccc(N)nc2n1)CN(C)C (stereo not given)
168 to 170	COc1ccc(C(=O)NCCCCCCCCCCNC(=O)c2ccc(OC)cc2)cc1
192 to 194	CN(C(CCn1c(=O)[nH]c2ccsc2c1=O)C(=O)NO)S(=O)(=O)c1ccc(Oc2cccc(Cl)c2)cc1 (stereo not given)
140 to 142	CCn1ncc2c1ncc1c(OCCC(C)C)nc3ncnn3c12
118 to 120	C[C@@H]1CC[C@@H](C(C)(C)c2ccccc2)[C@@H](Oc2cn(C(c3ccccc3)c3ccccc3)c(=O)o2)C1
83 to 84	CC(O)C1CCC(CNC(=O)OCc2ccccc2)CC1 (stereo not given)
228	COc1cc(-c2n[nH]c(N=C(c3ccccc3)c3ccccc3)n2)c(OC)cc1C
112 to 114	CNc1ccccc1CS(=O)c1nccn1-c1cc(C)ccn1 (stereo not given)

melting point [°C]	Compound
105 to 108	C=CCS(=O)(=O)c1ccc(NN=C(C)C)cc1
206 to 209	Cc1cn2c(=O)c3cc(S(=O)(=O)Cl)ccc3nc2s1
200 to 201	CC1(C)CCC(C)(C)c2cc(-c3cc(-c4ccc(C(=O)O)cc4)ccc3OCCCCCCO)ccc21
234	O=S(=O)(c1cccc(-c2cc(-c3nc(-c4ccc(C(F)(F)F)cc4)cc(C(F)(F)F)n3)ccn2)c1)N1CCC(O)C1 (racemic)
163 to 165	CCC(NS(=O)(=O)c1ccc(N2CCOCC2)cc1)C(=O)O (stereo not given)
173 to 174	COc1ccc(OC)c2c1C(=O)c1c(O)c3c(c(O)c1C2=O)CC(=O)CC3
206	CC(C)(C)Sc1c(CC(C)(C)C(=O)O)n(Cc2ccc(Cl)cc2)c2c(OCc3ccc4ccccc4n3)cccc12
157 to 159	Cc1csn(-c2ccc(Cl)cc2)c1=O
223 to 225	CC(C)Oc1c(C(=O)Nc2nnn[nH]2)sc2c1CCCC2
150 to 151	COc1ccc(-c2cc(=O)n(Cc3ccc(F)cc3F)nc2-c2ccc(OC)cc2)cc1
234 to 236	C[C@@H]1CN(c2c(F)c(N)c3c(=O)c(C(=O)O)cn(C4CC4)c3c2F)C[C@H]1N (relative stereo)
204 to 205	CCOc1cc(C=C2CCN(C(N)=O)C2=O)ccc1O
143 to 144	CCOC(=O)c1c(S(C)(=O)=O)c(N=O)c2ccccn12
197 to 198	O=Cc1cc2cc(O)c(Cl)c(Cl)c2s1
90 to 91	CCOC(=O)c1ccc(/C=C(\C)c2ccc3c(c2)C(C)(C)CCC3(C)C)cc1
85 to 87	O=C(O)Cc1ccccc1Sc1ccc(F)c(Cl)c1
185 to 188	CC(NC(=O)C(NC(=O)c1ccccc1)SC(=O)c1ccccc1)C(=O)N1CCCC1C(=O)O (stereo not given)
221 to 230	COc1cc2ncnc(Sc3cccc(O)c3)c2cc1OC
158 to 162	O=Cc1c[nH]c2ccc3c(c12)CC(O)CO3 (stereo not given)
272 to 276	Nc1c(F)c(F)c(F)c(F)c1S(=O)(=O)O
209 to 211	CC(=O)C(C)Nc1c(C)cc(C)c2nsnc12 (stereo not given)
173 to 176	Cn1nc(OCC(=O)c2ccc(F)cc2)c(-c2ccc(F)cc2)c1-c1ccc(S(C)(=O)=O)cc1
124 to 126	CCOC(=O)C=Cc1cc(OCc2ccccc2)ccc1-c1ccc(-c2cccc(C)c2)c(C(F)F)c1
105 to 106	O=C1CCN(C2(OCCOc3ccccc3)OCCO2)CC1

Compound	melting point [°C]
CC(=O)OC1CCC2C3CCC4=CC(=O)C(I)CC4(C)C3CCC12C (stereo not given)	92
CC(C)(C)OC(=O)CC[C@H](NC(=O)c1ccc(N(CCCl)CCCl)cc1F)C(=O)OC(C)(C)C	90 to 92
COC(=O)c1nc(CI)n(-c2ccc(Cl)cc2C(=O)c2ccccc2)n1	139 to 142
C#CCN(C)CC(O)c1cccc(O)c1 (stereo not given)	102 to 103
